Structures can show the parent of a compound that is named as a salt.

This assay addresses T1, full length SGK1 (Homo sapiens, UniProt O00141).
T1 construct: 125 μM full length SGK1 (Life Technologies Part #PR7358A); purchased Life Technologies PR7358A
T1 sequence (O00141 1-431): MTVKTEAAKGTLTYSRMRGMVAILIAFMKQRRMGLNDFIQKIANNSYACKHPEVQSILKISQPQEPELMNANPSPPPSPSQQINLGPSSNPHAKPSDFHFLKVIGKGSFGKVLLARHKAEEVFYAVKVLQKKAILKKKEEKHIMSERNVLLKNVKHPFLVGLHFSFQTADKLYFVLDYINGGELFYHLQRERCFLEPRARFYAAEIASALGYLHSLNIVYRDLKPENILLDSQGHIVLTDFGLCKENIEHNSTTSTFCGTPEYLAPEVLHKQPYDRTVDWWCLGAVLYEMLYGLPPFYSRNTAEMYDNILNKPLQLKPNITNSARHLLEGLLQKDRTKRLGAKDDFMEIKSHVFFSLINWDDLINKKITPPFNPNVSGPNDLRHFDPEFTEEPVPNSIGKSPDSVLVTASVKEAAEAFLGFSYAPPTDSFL
Description: SGK1 inhibition Assay A (Caliper LabChip electrophoretic separation of fluorescent peptide substrate and phosphorylated product). In kind it is biochemical. To be noted: Assay A; 20 μM ATP, 40 min incubation; read-out: SGK1 IC50.
In general, IC50 refers to the concentration that inhibits the measured activity by half. Consider `Nc1ncnn2c(-c3ccc(-n4cncn4)nc3)cc(N3CCC[C@@H](NC(=O)c4ccc(Cl)s4)C3)c12` [Example 251, (R)-N-(1-(7-(6-(1H-1,2,4-triazol-1-yl)pyridin-3-yl)-4-aminopyrrolo[2,1-f][1,2,4]triazin-5-yl)piperidin-3-yl)-5-chlorothiophene-2-carboxamide, TFA], for which the IC50 is 1 nM.

Take `Nc1ncnn2c(-c3ccnc(C(F)F)c3)cc(N3CCC[C@@H](NC(=O)c4cc5ccccc5[nH]4)C3)c12` [Example 488, (R)-N-(1-(4-amino-7-(2-(difluoromethyl)pyridin-4-yl)pyrrolo[2,1-f][1,2,4]triazin-5-yl)piperidin-3-yl)-1H-indole-2-carboxamide]: the IC50 is 1 nM.

Take `COC(=O)N1CC=C(c2cc(N3CCC[C@@H](NC(=O)c4sc(Cl)cc4OC4CCN(C5COC5)CC4)C3)c3c(N)ncnn23)C1` [Example 572, Methyl (R)-3-(4-amino-5-(3-(5-chloro-3-((1-(oxetan-3-yl)piperidin-4-yl)oxy)thiophene-2-carboxamido)piperidin-1-yl)pyrrolo[2,1-f][1,2,4]triazin-7-yl)-2,5-dihydro-1H-pyrrole-1-carboxylate]: the IC50 was 3 nM.

Regarding `CC(=O)N1CC=C(c2cc(N3CCC[C@@H](NC(=O)c4sc(Cl)cc4OC4CCN(CC(C)(C)O)CC4)C3)c3c(N)ncnn23)C1` [Example 618, (R)—N-(1-(7-(1-acetyl-2,5-dihydro-1H-pyrrol-3-yl)-4-aminopyrrolo[2,1-f][1,2,4]triazin-5-yl)piperidin-3-yl)-5-chloro-3-((1-(2-hydroxy-2-methylpropyl)piperidin-4-yl)oxy)thiophene-2-carboxamide], the IC50 is 9 nM.

In the case of `COC(=O)N1CC=C(c2cc(N3CCC[C@@H](NC(=O)c4sc(C5CC5)cc4OC4CCNCC4)C3)c3c(N)ncnn23)C1` [Example 379, Methyl (R)-3-(4-amino-5-(3-(5-cyclopropyl-3-(piperidin-4-yloxy)thiophene-2-carboxamido)piperidin-1-yl)pyrrolo[2,1-f][1,2,4]triazin-7-yl)-2,5-dihydro-1H-pyrrole-1-carboxylate], the IC50 is 3 nM.

Take `CC(=O)N1CC=C(c2cc(N3CCC[C@@H](NC(=O)c4sc(C)nc4OCCN(C)C)C3)c3c(N)ncnn23)C1` [Example 352, (R)—N-(1-(7-(1-acetyl-2,5-dihydro-1H-pyrrol-3-yl)-4-aminopyrrolo[2,1-f][1,2,4]triazin-5-yl)piperidin-3-yl)-4-(2-(dimethylamino)ethoxy)-2-methylthiazole-5-carboxamide]: the IC50 worked out at 14 nM.

Consider `CN(C)CCOc1cc(C(F)F)sc1C(=O)N[C@@H]1CCCN(c2cc(-c3ccnc(N)c3)n3ncnc(N)c23)C1` [Example 304, (R)-N-(1-(4-amino-7-(2-aminopyridin-4-yl)pyrrolo [2,1-f][1,2,4]triazin-5-yl)piperidin-3-yl)-5-(difluoromethyl)-3-(2-(dimethylamino)ethoxy) thiophene-2-carboxamide], for which the IC50 was 3 nM.

Take `CC(=O)N1CC=C(c2cc(N3CCC[C@@H](NC(=O)c4sc(C(F)F)cc4C4=CCN(C)CC4)C3)c3c(N)ncnn23)C1` [Example 322, (R)—N-(1-(7-(1-acetyl-2,5-dihydro-1H-pyrrol-3-yl)-4-aminopyrrolo[2,1-f][1,2,4]triazin-5-yl)piperidin-3-yl)-5-(difluoromethyl)-3-(1-methyl-1,2,3,6-tetrahydropyridin-4-yl)thiophene-2-carboxamide]: the IC50 amounted to 96 nM.

`CCN(CC)CCOc1cc(C(F)F)sc1C(=O)N[C@@H]1CCCN(c2cc(C3=CCN(C(C)=O)C3)n3ncnc(N)c23)C1` [Example 409, (R)-N-(1-(7-(1-acetyl-2,5-dihydro-1H-pyrrol-3-yl)-4-aminopyrrolo[2,1-f][1,2,4]triazin-5-yl)piperidin-3-yl)-3-(2-(diethylamino)ethoxy)-5-(difluoromethyl) thiophene-2-carboxamide]: the IC50 worked out at 24 nM.

In the case of `CC(=O)N1CC=C(c2cc(N3CCC[C@@H](NC(=O)c4csc(-c5ccccc5)n4)C3)c3c(N)ncnn23)C1` [Example 453, (R)-N-(1-(7-(1-acetyl-2,5-dihydro-1H-pyrrol-3-yl)-4-aminopyrrolo[2,1-f][1,2,4]triazin-5-yl)piperidin-3-yl)-2-phenylthiazole-4-carboxamide], the IC50 worked out at 7 nM.

In the case of `COC(=O)N1CC=C(c2cc(N3CCC[C@@H](NC(=O)c4sc(C5CC5)cc4OC4CNC4)C3)c3c(N)ncnn23)C1` [Example 388, methyl (R)-3-(4-amino-5-(3-(3-(azetidin-3-yloxy)-5-cyclopropylthiophene-2-carboxamido)piperidin-1-yl)pyrrolo[2,1-f][1,2,4]triazin-7-yl)-2,5-dihydro-1H-pyrrole-1-carboxylate], the IC50 was determined as 3 nM.

Regarding `Cc1nc(-c2cc(C(=O)N3CC=C(c4cc(N5CCC[C@@H](NC(=O)c6ccc(Cl)s6)C5)c5c(N)ncnn45)C3)no2)cs1` [Example 884, (R)-N-(1-(4-amino-7-(1-(5-(2-methylthiazol-4-yl)isoxazole-3-carbony1)-2,5-dihydro-1H-pyrrol-3-yl)pyrrolo[2,1-f][1,2,4]triazin-5-y1)piperidin-3-y1)-5-chlorothiophene-2-carboxamide], the IC50 was determined as 99 nM.

As to `CC1(C)CC1C(=O)N1CC=C(c2cc(N3CCC[C@@H](NC(=O)c4sc(Cl)cc4OCCN4CCOCC4)C3)c3c(N)ncnn23)C1` (stereo partly drawn) [Example 261, N-((3R)-1-(4-amino-7-(1-(2,2-dimethylcyclopropane-1-carbonyl)-2,5-dihydro-1H-pyrrol-3-yl)pyrrolo[2,1-f] [1,2,4]triazin-5-yl)piperidin-3-yl)-5-chloro-3-(2-morpholinocthoxy)thiophene-2-carboxamide], the concentration for half-maximal inhibition (IC50) came to 32 nM.

On to `CS(=O)(=O)c1ccc(-c2cc(N3CCC[C@@H](C(=O)Nc4nccs4)C3)c3c(N)ncnn23)cc1` [Example 104, (R)-1-(4-amino-7-(4-(methylsulfonyl)phenyl)pyrrolo[2,1-f][1,2,4]triazin-5-yl)-N-(thiazol-2-yl)piperidine-3-carboxamide], for which the IC50 was found to be 247 nM.

Turning to `CC(=O)N1CC=C(c2cc(N3CCC[C@@H](NC(=O)c4sc(C(F)F)cc4OC4COC4)C3)c3c(N)ncnn23)C1` [Example 433, (R)—N-(1-(7-(1-acetyl-2,5-dihydro-1H-pyrrol-3-yl)-4-aminopyrrolo[2,1-f][1,2,4]triazin-5-yl)piperidin-3-yl)-5-(difluoromethyl)-3-(oxetan-3-yloxy)thiophene-2-carboxamide], the IC50 is 18 nM.

In the case of `CC(=O)N1CC=C(c2cc(N3CCC[C@@H](NC(=O)c4cccc(N(C)C)c4)C3)c3c(N)ncnn23)C1` [Example 465, (R)-N-(1-(7-(1-acetyl-2,5-dihydro-1H-pyrrol-3-yl)-4-aminopyrrolo[2,1-f][1,2,4]triazin-5-yl)piperidin-3-yl)-3-(dimethylamino)benzamide], the IC50 stood at 64 nM.

Turning to `CC(=O)N1CC=C(c2cc(N3CCC[C@@H](NC(=O)c4sc(C)cc4N4CCN(C)CC4)C3)c3c(N)ncnn23)C1` [Example 269, (R)—N-(1-(7-(1-acetyl-2,5-dihydro-1H-pyrrol-3-yl)-4-aminopyrrolo[2,1-f][1,2,4]triazin-5-yl)piperidin-3-yl)-5-methyl-3-(4-methylpiperazin-1-yl)thiophene-2-carboxamide], the 50% inhibitory concentration (IC50) amounted to 31 nM.

Turning to `CN1CCN(c2cccc(C(=O)N[C@@H]3CCCN(c4cc(-c5cncnc5)n5ncnc(N)c45)C3)n2)CC1` [Example 787, (R)-N-(1-(4-amino-7-(pyrimidin-5-yl)pyrrolo[2,1-f][1,2,4]triazin-5-yl)piperidin-3-yl)-6-(4-methylpiperazin-1-yl)picolinamide], the IC50 was 77 nM.

Take `COC(=O)N1CC=C(c2cc(N3CCC[C@@H](NC(=O)c4sc(Cl)cc4OC4CN(CC(F)F)C4)C3)c3c(N)ncnn23)C1` [Example 385, Methyl (R)-3-(4-amino-5-(3-(5-chloro-3-((1-(2,2-difluoroethyl)azetidin-3-yl)oxy)thiophene-2-carboxamido)piperidin-1-yl)pyrrolo[2,1-f][1,2,4]triazin-7-yl)-2,5-dihydro-1H-pyrrole-1-carboxylate]: the IC50 was 21 nM.

For the molecule `COc1cc(C(=O)N[C@@H]2CCCN(c3cc(-c4ccc(S(C)(=O)=O)cc4)n4ncnc(N)c34)C2)ccn1` [Example 46, (R)-N-(1-(4-amino-7-(4-(methylsulfonyl)phenyl)pyrrolo[2,1-f][1,2,4]triazin-5-yl)piperidin-3-yl)-2-methoxyisonicotinamide, TFA], the IC50 is 10 nM.

Take `CC(=O)N1CC=C(c2cc(N3CCC[C@@H](NC(=O)c4cnc(C)cn4)C3)c3c(N)ncnn23)C1` [Example 451, (R)-N-(1-(7-(1-acetyl-2,5-dihydro-1H-pyrrol-3-yl)-4-aminopyrrolo[2,1-f][1,2,4]triazin-5-yl)piperidin-3-yl)-5-methylpyrazine-2-carboxamide]: the IC50 was found to be 225 nM.

In the case of `CN(C)CCOc1c(C(=O)N[C@@H]2CCCN(c3cc(-c4ccc(C#N)nc4)n4ncnc(N)c34)C2)[nH]c2ccccc12` [Example 367, (R)-N-(1-(4-amino-7-(6-cyanopyridin-3-yl)pyrrolo[2,1-f][1,2,4]triazin-5-yl)piperidin-3-yl)-3-(2-(dimethylamino)ethoxy)-1H-indole-2-carboxamide], the IC50 is 41 nM.

Turning to `COc1ncccc1C(=O)N[C@@H]1CCCN(c2cc(C3=CCN(C(C)=O)C3)n3ncnc(N)c23)C1` [Example 718, (R)-N-(1-(7-(1-acetyl-2,5-dihydro-1H-pyrrol-3-yl)-4-aminopyrrolo[2,1-f][1,2,4]triazin-5-yl)piperidin-3-yl)-2-methoxynicotinamide], the IC50 turned out to be 26 nM.

These data come from patent US20260250290A1 (BRISTOL-MYERS SQUIBB COMPANY, priority 2023, published 2026).
